SMILES | melting point
O=c1nc(-c2ccccc2C(F)(F)F)sc2ccccc12 | 140 °C
O=C(O)C(Cc1ccccc1)NCC1c2c(c3ccccc3c3ccccc23)-c2c1c1ccccc1c1ccccc21 (centres undefined) | 178 to 180 °C
COc1cc(-c2ncn(C)c2-c2ccc3c(c2)NCCO3)cc(OC)c1OC | 160 to 162 °C
O=C1c2ccccc2C(F)(F)C(F)(F)c2ccccc21 | 70 to 75 °C
CSc1nc(N)c(C#N)nc1C#N | 250 to 252 °C
COc1ccc(S(=O)(=O)Nc2cccnc2Nc2ccc(OC(=O)C(C)(C)C)cc2)cc1 | 188 to 189 °C
CCCCC(=N)NC(=S)Nc1ccc(Cl)cc1 | 164 to 166 °C
O=S(=O)(CC1CCCCC1)c1nc[nH]n1 | 172 to 175 °C
CSc1ccc2[nH]c(=O)oc(=O)c2c1 | 216 to 218 °C
COc1cc(C)nc(NC(=O)NS(=O)(=O)c2c(C)nsc2OCC(F)(F)F)n1 | 159 to 161 °C
CCCCCC(=O)N1c2cscc2C(=O)N(C)c2ccccc21 | 76 to 77 °C
COc1cc(Nc2nc3cccc(-c4ccc(C)c(N)c4)c3o2)cc(OC)c1OC | 188 to 190 °C
CCOC(=O)c1c(-c2ccncc2)[nH]c(-c2ccncc2)c1-c1ccc([N+](=O)[O-])cc1 | 274 to 276 °C
CC1(C)NC(=O)N(CC(CS(=O)(=O)c2ccc(-c3ccc(OC(F)(F)F)cc3)cc2)N(O)C=O)C1=O (centres undefined) | 195 to 197 °C
CCC1=NC=C(c2ccc3c(c2)NC(=O)CO3)C(c2ccccc2)S1 (centres undefined) | 130 to 134 °C
CC1=NC(C)(C)SC1=NOC(=O)N(C)SN(C)C(=O)F | 77 to 79 °C
CCOC(=O)C(O)c1ccc(C2CCCCC2)cc1 (centres undefined) | 85 to 86 °C
Cc1cccc(C)c1N1C(=N)N(c2cccc(C(F)(F)F)c2)CC1C (centres undefined) | 95 to 98 °C
CC(=O)N1CCC(C(=O)N2CC[C@@H](N(C)C(=O)c3ccc(Br)cn3)[C@H](c3ccc(Cl)c(Cl)c3)C2)CC1 | 128 to 130 °C
CN1CCC(C(=O)N(C)c2ccc(C(=O)N3CCCCc4ccccc43)cc2)CC1 | 194 to 197 °C
O=c1nc(-c2c(F)cccc2F)oc(=O)n1-c1cc(Cl)c(Oc2ncc(OC(F)F)cc2Cl)c(Cl)c1 | 154 to 156 °C
CC(C)(C)OC(=O)N1CC2CC(CN(CCCOc3ccc(C#N)cc3O)C2)C1 | 127 to 130 °C

SMILES | melting point
CS(=O)(=O)N(c1nc(CN2CCN(C(c3ccccc3)c3ccccc3)CC2)cs1)S(C)(=O)=O | 167 to 168 °C
COc1cc(-c2ncnc(Cl)c2Cl)c(F)cc1Cl | 116 to 117 °C
Cc1cc(C)cc(Oc2ccc([N+](=O)[O-])cc2S(=O)(=O)N2CCN(C(=O)OC(C)(C)C)CC2)c1 | 232 to 233 °C
CC1(C)CN(CC(C)(O)c2ccc3c(c2)OCO3)c2nc(-c3ccncn3)cc(=O)n2C1 (centres undefined) | 194 to 196 °C
COc1cc(CO)c2oc(-c3ccc(OC)c(F)c3)cc2c1 | 128 to 130 °C
CCOC(=O)C1=C(C)S(=O)CCS1(=O)=O (centres undefined) | 138 to 140 °C
CN1C2C=C(c3c[nH]c(-c4ccc(F)cc4)c3-c3ccncc3)CC1CC2 (centres undefined) | 243 to 245 °C
CCOc1cc2c(Nc3cc(OC)c(Cl)cc3Cl)c(C#N)cnc2cc1Br | > 250 °C
CN1C(=O)C(=CNc2ccncc2)C(=O)N(C)C1=O | 233 to 235 °C
O=[N+]([O-])c1ccccc1NCCCCCCCCCCCCNc1ccccc1[N+](=O)[O-] | 79 to 80 °C
O=C(NC1CCNCC1)N(CCCN1CCC(Cc2ccccc2)CC1)c1ccccc1 | 85 to 87 °C
COC1=C(c2ccccc2CSc2nc3ccccc3s2)C(=O)OC1 | 81 to 82 °C
Cc1c(C)c2c(c(C)c1N)CC(C)(CN1CCN(C(=O)CCC(c3ccccc3)c3ccccc3)CC1)O2 (centres undefined) | 135 to 138 °C
COc1ccc2cc(C3=CC4CCC(C3)N4)ccc2c1 (centres undefined) | 138 °C
CCOC(=O)[C@H](Cc1cccc(C#N)c1)NS(=O)(=O)c1ccc2c(c1)CN(C(C)C)CC2 | 110 °C
CCCCCCCCCCCCCCCCNC(=O)c1cc(OCCS(C)(=O)=O)c2ccccc2c1O | 107 to 109 °C
CC(C)CC(=O)Nc1ccc2oc3c(c2c1)CCCC3 | 154 to 157 °C
COC(=O)c1ccc(C2C(=O)Oc3c2cc(C(C)(C)C)cc3C(C)(C)C)cc1 (centres undefined) | 135 to 136 °C
CS(=O)(=O)c1cc(N)c([N+](=O)[O-])cc1N | 221 °C
Cc1nnc(-c2ccc3occ(-c4ccc(S(C)=O)c(Cl)c4)c3c2)o1 (centres undefined) | 196 to 197 °C
Cn1ncc(-c2ccc3c(c2)c(C2CCN(CCN4CCNC4=O)CC2)cn3-c2ccc(F)cc2)n1 | 203 to 204 °C
CCCc1nnc(Cc2cn(-c3ccccc3)nc2OCc2ccc(OCc3nc(-c4ccco4)oc3C)c(OC)c2)o1 | 102 to 103 °C

Other lines, results leading:

melting point | SMILES
60 °C | Cn1ccc2c(C(=O)c3ccccc3OCCCCl)cccc21
120 °C | O=C(O)c1[nH]cc(OCc2ccccc2)c(=O)c1Br
113 to 115 °C | O=S(=O)(c1ccc(Cl)cc1)C(c1cc(F)ccc1F)c1cc(NCCOCCO)ncc1Cl (centres undefined)
191 to 192 °C | O=C(O)/C=C\C(=O)N1CCc2cc(S(=O)(=O)N3CCN(c4cccc(Cl)c4)CC3)ccc21
71 to 72 °C | CCCNC(=O)Oc1ccc(C(O)(CC)c2ccc(Cl)cc2)cc1 (centres undefined)
150 to 151 °C | COc1cc(-c2cnc3[nH]cc(C(=O)CCC(C)OC)c3n2)cc(OC)c1OC (centres undefined)
205 to 206 °C | CC(C)c1cc2c(cc1Oc1ccc(C(=O)O)cc1)C(C)(C)CCC2(C)C
190 to 191 °C | CCOC(=O)c1cc2cc(OC(F)(F)F)cc(N)c2[nH]1
90 to 91 °C | C=C(C)C(=O)OCCOCc1ccc(O)c2ncccc12
116 to 117 °C | CCOC(=O)Cc1ccc(-c2nc(COc3cc(CO)on3)c(C)o2)cc1
201 to 203 °C | CC(=O)c1ccc(CNC(=O)c2cccnc2Oc2cccnc2)s1
173 to 180 °C | CC(=O)Nc1ccc(NC(=O)CN2CCC(Cc3ccc(F)cc3)CC2)cc1
174 to 175 °C | O=C(ON1C(=O)CCC1=O)c1ccccn1
211 to 212 °C | CCCNC(=O)NS(=O)(=O)c1ccccc1I
114 to 116 °C | O=S(=O)(Oc1ccccc1)c1ccc(O)cc1
210 to 213 °C | CCOc1cc(C(=O)O)on1
133 to 136 °C | CCc1cccc(C)c1CNc1cc(C(=O)N(C)C)nc2c1nc(C)n2C
88 to 90 °C | CC(=O)n1cc(Cl)c(-c2cccc(Cl)c2)c1
147 to 149 °C | CC(/C=C/c1ccccc1)=C\C(=O)NCCCCCC(=O)NO
233 to 237 °C | Cc1[nH]c(C(=O)O)c(C)c1C=O
245 to 249 °C | O=C(NC(=O)c1c(Cl)cccc1Cl)Nc1cnc(-c2ccc(Cl)cc2)cn1
> 270 °C | Nc1cccnc1C1CCN(c2cc3c(cc2F)c(=O)c(C(=O)O)cn3C2CC2)C1 (centres undefined)
141 to 143 °C | CC(C)c1ccc(OC(C)(Cc2ccc(OCCNC(=O)c3ccc(-c4ccccn4)cc3)cc2)C(=O)O)cc1 (centres undefined)
105 to 107 °C | NC(=O)N(O)CC#CCOc1cccc(Oc2ccccc2)c1
100 to 101 °C | CN1CCN(C(=O)c2ccc([N+](=O)[O-])cc2)CC1
205 to 207 °C | CCCC(=O)c1cnc2c(F)cccc2c1Nc1ccc(O)cc1C
120 to 121 °C | O=C(O)CCCCCCc1cnc2ccccc2c1
167 to 169 °C | CC(C)(C)OC(=O)NCCCCn1c(-c2ccccc2)cc2ccc(C(=O)c3cc(CC(=O)O)c(-c4ccccc4)s3)cc21

melting point | SMILES
243 to 245 °C | CSc1ncc2cc(C)c(=O)[nH]c2n1
182 to 185 °C | O=C(NC(=S)N1CCN(c2nc3cccccc-3n2)CC1)c1ccccc1
148 to 152 °C | CCc1ccc2c(O)ccnc2c1
217 °C | COc1ccc(-c2ccc3cnc(Nc4ccc(C5CCN(CC(N)=O)CC5)cc4)nn23)cn1
198 to 199 °C | O=C(O)c1ccc(C(=O)N2Cc3cccn3Cc3ccccc32)c(Cl)c1
> 280 °C | CC(=O)C(=O)Nc1ccc(-c2ccc(C(=O)O)c(=O)[nH]2)cc1
170 to 172 °C | O=C(O)c1cc(CCl)cnc1C(=O)O
211 to 212 °C | O=C1CCC(c2ccccc2O)=NN1
305 to 307 °C | CC(C)c1nc2c([nH]1)c(=O)[nH]c(=O)n2Cc1ccncc1
283 to 285 °C | COc1cc(C(=O)O)ccc1Cc1cccc2ccc(C(N)=O)cc12
207 to 209 °C | O=C/C=C/c1cc2cc(Cl)ccc2[nH]1
155 °C | O=C(O)c1ccc2cnc3ccccc3c2c1
129 to 132 °C | OP(O)C(NC(c1ccccc1)c1ccccc1)c1cccnc1 (centres undefined)
233 to 235 °C | NS(=O)(=O)c1ccc(NC(=O)Nc2ccccc2)cc1
168 to 170 °C | O=C(O)CC(CC(=O)O)c1ccc(O)cc1
194 to 195 °C | Nc1nc(N)c([N+](=O)[O-])c(OCc2ccccc2)n1
158 to 160 °C | O=C(CCC(=O)N1CCC(c2ccc(Cl)cc2)CC1)c1ccc2c(c1)CCN(C(=O)c1ccccc1)CC2
151 to 155 °C | CCCc1c(OCCCOc2cc(OCC(=O)O)ccc2C(C)=O)ccc(C(C)=O)c1O
139 to 140 °C | CC(=O)N1CCNC(=O)C1c1ccc(F)cc1 (centres undefined)
200 to 203 °C | CC(C)C(NC(=O)Cn1c(-c2ccc(F)cc2)ncc(N)c1=O)C(=O)C(F)(F)F (centres undefined)
144 to 146 °C | CC[C@H]1COC(=O)N1c1cc(C)nc(Oc2c(C)cc(Cl)cc2C)c1C(=O)OC
95 to 97 °C | COc1ccc(COC(=O)N[C@@H](CC(N)=O)C(=O)N[C@@H](Cc2ccccc2)[C@H](O)C(=O)N2CCC[C@H]2C(=O)NC(C)(C)C)cc1
55 to 56 °C | CC1(OCc2ccccc2)CCCC(C)(C(=O)Nc2ccccc2)O1 (centres undefined)
242 to 246 °C | COC(=O)c1cn2c(n1)COc1cc(C)c(Cl)cc1-2
167 to 169 °C | COc1ccc(NC(=S)NC(=O)c2ccccc2)cc1COc1cc(Cl)cc(Cl)c1
94 to 96 °C | CC(O)(COc1ccc(S(=O)(=O)c2ccccc2)cc1)C(F)(F)F (centres undefined)
213 to 214 °C | O=C(Nc1ccc(-n2nc(C(F)(F)F)cc2C(F)(F)F)cc1)c1ccc(CO)cc1

Reference: a melting point compilation (Tetko et al.; mined from patent text by program, amines drawn as free bases though some values may be those of a salt)
